From patent publication US9615576B2, “Pesticidal compositions and processes related thereto” (Dow AgroSciences LLC, priority 2011, dated 2017) come the findings set out here.

Assay [1] relates to Beet Armyworm (BAW) (Spodoptera exigua). The assay can be described thus: Bioassays on Beet Armyworm (BAW), 128-well diet tray assay. Format: in vivo. The note with it: 168 h, 50 μg/cm^2 test compound on artificial diet, second instar larvae, 25° C., five to seven days, average of eight wells, read-out: BAW Rating (% mortality). The gist of the method:
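Second-instar larvae (1–5 per well) on artificial diet surface-treated with 50 μg/cm^2 compound applied in 90:10 acetone-water and dried; eight wells per compound. Held 5–7 days at 25° C., 14:10 light-dark. Percent mortality scored per well and averaged over eight wells.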

The test system of assay [2] is Corn Earworm (CEW) (Helicoverpa zea). The assay is described as follows: Bioassays on Corn Earworm (CEW), 128-well diet tray assay. As to conditions: 168 h, 50 μg/cm^2 test compound on artificial diet, second instar larvae, 25° C., five to seven days, average of eight wells, read-out: CEW Rating (% mortality). The assay is classed as in vivo. Summed up:
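Second-instar larvae (one to five per well) placed on artificial diet treated with 50 μg/cm^2 compound in 90:10 acetone-water, dried; eight wells per compound. Held at 25° C, 14:10 light-dark, five to seven days; percent mortality averaged over wells.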

In the case of `O=C(CC(F)(F)F)NCc1ccc(/C=C/C(c2cc(Cl)c(Cl)c(Cl)c2)C(F)(F)F)cc1C(F)(F)F` (stereo not shown) [CC24], the mortality at 50 µg/cm2 in assay [1] and in assay [2] was 50 to 100% throughout.
As for `Cc1cc(/C=C/C(c2cc(Cl)cc(Cl)c2)C(F)(F)F)ccc1C(=O)NOCc1ccc(Cl)nc1` (stereo not shown) [AC21], the mortality at 50 µg/cm2 in assay [1] and in assay [2] was 0% in each case.
On to `O=Cc1cc(/C=C/C(c2cc(Cl)cc(Cl)c2)C(F)(F)F)ccc1-n1cncn1` (stereo not shown) [DC52, (E)-5-(3-(3,5-dichlorophenyl)-4,4,4-trifluorobut-1-en-1-yl)-2-(1H-1,2,4-triazol-1-yl)benzaldehyde], for which the mortality at 50 µg/cm2 in assay [1] and in assay [2] was 0% throughout.
With `Cc1cc(/C=C/C(c2cc(Cl)cc(Cl)c2)C(F)(F)F)ccc1C(=O)NCc1ccc(Cl)cc1` (stereo not shown) [AC48], the mortality at 50 µg/cm2 in assay [1] and in assay [2] was 50 to 100% in each case.
Consider `CCc1cc(/C=C/C(c2cc(Cl)c(F)c(Cl)c2)C(F)(F)F)ccc1C(=O)NCc1cccnc1Cl` (stereo not shown) [AC76], for which the mortality at 50 µg/cm2 in assay [1] and in assay [2] was 50 to 100% each time.
Consider `O=C(NC1CS(=O)(=O)C1)c1ccc(/C=C/C(c2cc(Cl)c(Cl)c(Cl)c2)C(F)(F)F)cc1Br` (stereo not shown) [AC33], for which the mortality at 50 µg/cm2 in assay [1] and in assay [2] was 50 to 100% each time.
In the case of `O=C(Cn1ncc2cc(/C=C/C(c3cc(Cl)c(F)c(Cl)c3)C(F)(F)F)ccc2c1=O)NCC(F)(F)F` (stereo not shown) [BC14, (E)-2-(6-(3-(3,5-dichloro-4-fluorophenyl)-4,4,4-trifluorobut-1-en-1-yl)-1-oxophthalazin-2(1H)-yl)-N-(2,2,2-trifluoroethyl)acetamide], the values for the mortality at 50 µg/cm2 in assay [1] and in assay [2] were 50 to 100% and 0%, respectively.
Regarding `FC(F)(F)C(/C=C/c1ccc(-n2cncn2)cc1)c1cc(Cl)cc(Cl)c1` (stereo not shown) [DC1, (E)-1-(4-(3-(3,5-dichlorophenyl)-4,4,4-trifluorobut-1-en-1-yl)phenyl)-1H-1,2,4-triazole], the mortality at 50 µg/cm2 in assay [1] and in assay [2] was 50 to 100% each time.
For the molecule `Cc1cc(/C=C/C(c2cc(Cl)cc(Cl)c2)C(F)(F)F)ccc1C(=O)N(C)Cc1ccc(Cl)nc1` (stereo not shown) [AC117], the mortality (commonly the share of the test organisms that died) at 50 µg/cm2 is 50 to 100% in assay [1] and 0% in assay [2].
In the case of `Cc1cc(/C=C/C(c2cc(Cl)cc(Cl)c2)C(F)(F)F)ccc1C(=O)NCC(=O)NC1CS(=O)(=O)C1` (stereo not shown) [AC81], the mortality at 50 µg/cm2 was 50 to 100% in assay [1] and 0% in assay [2].
With `O=C(NCC(F)(F)F)c1ccc(/C=C/C(c2cc(Cl)cc(Cl)c2)C(F)(F)F)cc1` (stereo not shown) [AC4], the mortality at 50 µg/cm2 was 0% in assay [1] and 50 to 100% in assay [2].
Consider `Cc1cc(/C=C/C(c2cc(Cl)cc(Cl)c2)C(F)(F)F)ccc1C(=O)NCC(=O)N(C)CC(F)(F)F` (stereo not shown) [AC51], for which the mortality at 50 µg/cm2 in assay [1] and in assay [2] was 50 to 100% throughout.
For `O=C(CC(F)(F)F)NCc1ccc(/C=C/C(c2cc(Cl)c(Cl)c(Cl)c2)C(F)(F)F)cc1Cl` (stereo not shown) [CC10], the mortality at 50 µg/cm2 in assay [1] and in assay [2] was 50 to 100% throughout.
For `O=C(NCc1ccc(Cl)nc1)c1ccc(/C=C/C(c2cc(Cl)c(F)c(Cl)c2)C(F)(F)F)cc1F` (stereo not shown) [AC65], the mortality at 50 µg/cm2 in assay [1] and in assay [2] was 50 to 100% each time.
With `Fc1c(Cl)cc(C(/C=C/c2ccc3c(c2)CCC3NCCC(F)(F)F)C(F)(F)F)cc1Cl` (stereo not shown) [BC10, (E)-5-(3-(3,5-dichloro-4-fluorophenyl)-4,4,4-trifluorobut-1-en-1-yl)-N-(3,3,3-trifluoropropyl)-2,3-dihydro-1H-inden-1-amine], the mortality at 50 µg/cm2 in assay [1] and in assay [2] was 50 to 100% in each case.
On to `FC(F)(F)C(/C=C/c1ccc(CNC(=S)C2CC2)c(Cl)c1)c1cc(Cl)c(Cl)c(Cl)c1` (stereo not shown) [CC20], for which the mortality at 50 µg/cm2 in assay [1] and in assay [2] was 50 to 100% in each case.
Consider `Cc1cc(/C=C/C(c2cc(Cl)cc(Cl)c2)C(F)(F)F)ccc1C(=O)NNc1ccccc1F` (stereo not shown) [AC17], for which the mortality at 50 µg/cm2 in assay [1] and in assay [2] was 50 to 100% throughout.
For `FC(F)(F)C(/C=C/c1ccc(-n2cncn2)cc1Cl)c1cc(Cl)cc(Cl)c1` (stereo not shown) [DC67], the mortality at 50 µg/cm2 in assay [1] and in assay [2] was 50 to 100% each time.
Consider `Cc1cc(/C=C\C(c2cc(Cl)cc(Cl)c2)C(F)(F)F)ccc1C(=O)NCC(=O)NC1CC1` (stereo not shown) [AC93], for which the mortality at 50 µg/cm2 in assay [1] is 50 to 100%; in assay [2], 0%.
Regarding `Cc1cc(/C=C/C(c2cc(Cl)c(Cl)c(Cl)c2)C(F)(F)F)ccc1C(=O)NCc1ccc(Cl)nc1` (stereo not shown) [AC22], the mortality at 50 µg/cm2 in assay [1] and in assay [2] was 50 to 100% throughout.
For the molecule `O=C(NCc1ccc(/C=C/C(c2cc(Cl)c(Cl)c(Cl)c2)C(F)(F)F)cc1Cl)N1CCOCC1` (stereo not shown) [CC34], the mortality at 50 µg/cm2 in assay [1] and in assay [2] was 50 to 100% each time.
In the case of `Fc1cccc(C(/C=C/c2ccc(-n3cncn3)cc2)C(F)(F)F)c1` (stereo not shown) [DC9], the mortality at 50 µg/cm2 in assay [1] and in assay [2] was 0% throughout.
For the molecule `FC(F)(F)C(/C=C/c1ccc(-n2cncn2)cc1)c1ccc(Cl)cc1` (stereo not shown) [DC4], the mortality at 50 µg/cm2 in assay [1] was 50 to 100%; in assay [2], 0%.
`O=C(NC1CS(=O)(=O)C1)c1ccc(/C=C/C(c2cc(Cl)c(F)c(Cl)c2)C(F)(F)F)cc1F` (stereo not shown) [AC84]: the mortality at 50 µg/cm2 in assay [1] and in assay [2] was 50 to 100% throughout.
For the molecule `O=C(CC(F)(F)F)NCc1ccc(/C=C/C(c2cc(Cl)c(Cl)c(Cl)c2)C(F)(F)F)c2ccccc12` (stereo not shown) [CC46, (E)-3,3,3-trifluoro-N-((4-(4,4,4-trifluoro-3-(3,4,5-trichlorophenyl)but-1-en-1-yl)naphthalen-1-yl)methyl)propanamide], the mortality at 50 µg/cm2 is 0% in assay [1] and 50 to 100% in assay [2].
Regarding `Cc1cc(/C=C/C(c2cc(Cl)c(F)c(Cl)c2)C(F)(F)F)ccc1C(=O)NCC(=O)NCC(F)(F)F` (stereo not shown) [AC69], the mortality at 50 µg/cm2 in assay [1] and in assay [2] was 50 to 100% each time.
Turning to `O=C(NCc1ccc(/C=C/C(c2cc(Cl)cc(Cl)c2)C(F)(F)F)cc1C(F)(F)F)C1CC1` (stereo not shown) [CC21], the mortality at 50 µg/cm2 in assay [1] and in assay [2] was 50 to 100% throughout.
As for `O=C(CC(F)(F)F)NCc1ccc(/C=C/C(c2cc(Cl)c(Cl)c(Cl)c2)C(F)(F)F)cc1` (stereo not shown) [CC6], the mortality at 50 µg/cm2 in assay [1] and in assay [2] was 50 to 100% throughout.
In the case of `Cc1cc(/C=C/C(c2cc(Cl)c(F)c(Cl)c2)C(F)(F)F)ccc1C(=O)NC1CCOCC1` (stereo not shown) [AC52], the mortality at 50 µg/cm2 in assay [1] and in assay [2] was 50 to 100% in each case.
For `Cc1cc(/C=C/C(c2cc(Cl)cc(Cl)c2)C(F)(F)F)ccc1C(=O)N1CCCC1=O` (stereo not shown) [AC8], the values for the mortality at 50 µg/cm2 in assay [1] and in assay [2] were 0% and 0 to 50%, respectively.
In the case of `O=C(c1ccc(/C=C/C(c2cc(Cl)c(Cl)c(Cl)c2)C(F)(F)F)cc1Br)N1CCN(CC(F)(F)F)CC1` (stereo not shown) [AC101], the mortality at 50 µg/cm2 in assay [1] and in assay [2] was 0% each time.
On to `CC(C)(C)C(=O)NCc1ccc(/C=C/C(c2cc(Cl)c(Cl)c(Cl)c2)C(F)(F)F)cc1Cl` (stereo not shown) [CC12], for which the mortality at 50 µg/cm2 in assay [1] and in assay [2] was 0% each time.
Take `Cc1cc(/C=C/C(c2cc(Cl)c(F)c(Cl)c2)C(F)(F)F)ccc1C(=O)NCc1ccc(Cl)cn1` (stereo not shown) [AC53]: the mortality at 50 µg/cm2 in assay [1] and in assay [2] was 50 to 100% each time.
As for `Cc1cc(/C=C/C(c2cc(Cl)cc(Cl)c2)C(F)(F)F)ccc1C(=O)NCC(=O)NC1CC1` (stereo not shown) [AC40], the mortality at 50 µg/cm2 in assay [1] and in assay [2] was 50 to 100% in each case.
In the case of `O=C(O)c1cc(/C=C/C(c2cc(Cl)cc(Cl)c2)C(F)(F)F)ccc1-n1cncn1` (stereo not shown) [DC61, (E)-5-(3-(3,5-dichlorophenyl)-4,4,4-trifluorobut-1-en-1-yl)-2-(1H-1,2,4-triazol-1-yl)benzoic acid], the mortality at 50 µg/cm2 in assay [1] and in assay [2] was 0% each time.
Take `O=C(NCc1ccc(/C=C/C(c2cc(Cl)cc(Cl)c2)C(F)(F)F)cc1)C1CC1` (stereo not shown) [CC2]: the mortality at 50 µg/cm2 in assay [1] and in assay [2] was 50 to 100% each time.
Consider `Cc1cc(/C=C/C(c2cc(Cl)cc(Cl)c2)C(F)(F)F)ccc1-n1cncn1` (stereo not shown) [DC62], for which the mortality at 50 µg/cm2 in assay [1] and in assay [2] was 50 to 100% in each case.
`CNC(=S)NC1CCc2cc(/C=C/C(c3cc(Cl)c(Cl)c(Cl)c3)C(F)(F)F)ccc21` (stereo not shown) [BC1, (E)-1-methyl-3-(5-(4,4,4-trifluoro-3-(3,4,5-trichlorophenyl)-but-1-enyl)-2,3-dihydro-1H-inden-1-yl)thiourea]: the mortality at 50 µg/cm2 in assay [1] and in assay [2] was 50 to 100% throughout.
With `Cc1cc(/C=C/C(c2cc(Cl)cc(Cl)c2)C(F)(F)F)ccc1C(=O)NCc1ccccn1` (stereo not shown) [AC12], the mortality at 50 µg/cm2 in assay [1] and in assay [2] was 50 to 100% throughout.
As for `Cc1cc(/C=C/C(c2cc(Cl)c(F)c(Cl)c2)C(F)(F)F)ccc1C(=O)NCc1ccc(Cl)nc1` (stereo not shown) [AC38], the mortality at 50 µg/cm2 in assay [1] and in assay [2] was 50 to 100% throughout.
For `COc1ccc(C(/C=C/c2ccc(-n3cncn3)cc2)C(F)(F)F)cc1` (stereo not shown) [DC6], the mortality at 50 µg/cm2 in assay [1] and in assay [2] was 0% throughout.
Turning to `Fc1cc(F)cc(C(/C=C/c2ccc(-n3cncn3)cc2)C(F)(F)F)c1` (stereo not shown) [DC8], the mortality at 50 µg/cm2 in assay [1] was 50 to 100%; in assay [2], 0%.
Take `N#Cc1cc(/C=C/C(c2cc(Cl)c(Cl)c(Cl)c2)C(F)(F)F)ccc1-n1cncn1` (stereo not shown) [DC31]: the mortality at 50 µg/cm2 in assay [1] and in assay [2] was 50 to 100% each time.
Turning to `O=C(NC1CCCc2cc(/C=C/C(c3cc(Cl)c(Cl)c(Cl)c3)C(F)(F)F)ccc21)C1CC1` (stereo not shown) [BC7], the mortality at 50 µg/cm2 in assay [1] and in assay [2] was 50 to 100% throughout.
